Measurements published in paper doi:10.1101/435867v2 (biorxiv, 2018).

How the values were obtained:
[1] = target: T1, GLO1 (Homo sapiens, UniProt Q04760); test: fluorescence spectroscopy; type: binding
T1 sequence (Q04760 2-184): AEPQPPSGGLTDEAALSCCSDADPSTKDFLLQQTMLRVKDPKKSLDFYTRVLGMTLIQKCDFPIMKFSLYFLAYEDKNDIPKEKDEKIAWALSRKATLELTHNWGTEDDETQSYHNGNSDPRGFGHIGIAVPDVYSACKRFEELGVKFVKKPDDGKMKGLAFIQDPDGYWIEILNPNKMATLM

[2] = target: T2, GLO1 in PC12 cells (Rattus norvegicus, UniProt Q6P7Q4); test: cellular thermal shift assay; type: cell-based; conditions: half-maximal thermal stabilization
T2 sequence (Q6P7Q4 2-184): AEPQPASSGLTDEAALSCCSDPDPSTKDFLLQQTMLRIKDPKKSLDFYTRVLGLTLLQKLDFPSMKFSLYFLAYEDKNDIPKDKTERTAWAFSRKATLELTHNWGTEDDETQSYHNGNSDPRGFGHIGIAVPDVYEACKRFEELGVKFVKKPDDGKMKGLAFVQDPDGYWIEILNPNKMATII

[3] = target: T1, GLO1; test: fluorescence spectroscopy; type: binding; conditions: 298 K, 5 μM GLO1

Kd [1]: 47.2 µM
EC50 [2]: 45.2 µM
Ka [3]: 21200 L/mol
Compound: O=c1cc(-c2ccc(O)c(O)c2)oc2cc(O)cc(O)c12 [luteolin]
